# Assay results reported in patent publication US12630529B2, “GCN2 modulator compounds” (ALESTA THERAPEUTICS BV, priority 2020, dated 2026).
# Columns and labels:
# GCN2 = target: T1, GCN2 (Mus musculus, UniProt Q9QZ05); experiment: GCN2 inhibition cell-based assay (P-GCN2 Western blot in Neuro 2a cells); conditions: amino acid deprived media (DMEM lacking L-cysteine and methionine), 3 hours
# T1 construct: endogenous in cells; host or cells: Neuro 2a (N2a)
# Experimental: Neuro 2a cells (N2a) were maintained at 37° C. and 5% CO2 in DMEM/F12 medium (Fisher Scientific) supplemented with 10% fetal bovine serum and 1% penicillin-streptomycin (complete medium). 300,000 cells/well were seeded in flat bottom 6 well plates 48 hours before treatment with the compounds.
# Testing compounds were prepared at different concentrations ranging from 10 μM to 0.1 nM on DMEM medium lacking L-cysteine and methionine (DMEM-CM) (Gibco) and supplemented with 1% penicillin-streptomycin. Complete medium was used as control of non-stressed condition. After 48 hours, the medium was removed from each well and 2 mL per well of each treatment was added. Cells were treated for 3 hours at 37° C. and 5% CO2.
# After the incubation time, each well was washed with sterile 1×PBS and then 100 μL of ice-cold lysis buffer supplemented with phosphatase and protease inhibitors was added. Lysates were transferred to 1.5 mL tubes and sonicated for 3 min, and total protein amounts were quantified using BCA assay (e.g., BCA Protein Assay Kit; Pierce) according to manufacturer instructions. Equal amount of proteins was loaded on SDS-PAGE gels for electrophoresis and then transferred onto 0.2 µm filter pore PVDF membranes.
# Membranes were then blocked in blocking buffer containing 3% BSA/0.1% Tween/1×Tris-buffered saline (TBS) for 1 hour and then incubated overnight at 4° C. with agitation with anti-pGCN2 primary antibody (Abcam ab-75836), diluted 1:1,000 in blocking buffer. […] (Sigma Aldrich) was used as a loading control.
# Membranes were then incubated with the corresponding secondary antibody to detect immune-reactive bands using enhanced chemiluminescence (e.g., ECL Western Blotting Substrate Pierce).
# Images were acquired (e.g., using Chemidoc™ equipment) and quantitated by densitometry using ImageJ software. IC50 values were determined from a concentration-response curve using GraphPad prism software.
# IC50 values from P-GCN2 inhibition assay after induction with amino acid deprived media in the presence of different concentrations of test compounds are shown in Table 2. For IC50 values: +++ refers to <10 nM of test compound; ++ refers to 10 nM to 100 nM of test compound; + refers to 100 nM to 1,000 nM of test compound and − refers to >1,000 nM of test compound.
# Under GCN2-mediated stress conditions, resulting from an amino acid deprived medium, GCN2 is generally phosphorylated. Accordingly, inhibition of GCN2 phosphorylation as a result of the test compound indicates inhibition of the GCN2 pathway.
# HT29 cells = experiment: Growth of tumor spheroids; format: cell-based; conditions: 64 μM arginine, up to 120 hours, vs untreated spheroids
# Experimental: The growth of tumor spheroids was evaluated following treatment of cells with Compound 1, Compound 2 and Compound 108. Briefly, HT29 cells were seeded at 5,000 cells/well in ultra-low attachment round bottom 96-well plates, in 100 μL SILAC DMEM Flex media without phenol red, supplemented with 10% fetal bovine serum (FBS), 1 g/L glucose, 2 mM glutamine, 220 μM lysine, and 64 μM arginine. The plates were centrifuged for 10 minutes at 125×g and put in a humidified incubator at 37° C. for 3 days before the onset of the experiment to allow spheroids to form.
# Three days after seeding, 10 μM Compound 1, 10 μM Compound 2, 10 μM Compound 108 or 10 μM vehicle control (0.1% DMSO), were added together with 100 nM fluorescent apoptosis stain (e.g., YO-PRO™-1 Iodide; Thermo Fisher) to detect apoptotic cells and Nuclear-ID Red DNA Stain (1:100,000; ENZO Life Sciences) to detect live cells. Plates were placed in a live-cell imaging and analysis platform (e.g., IncuCyte ZOOM®; Essenbio) set up in a humidified incubator at 37° C. and scanned every 4 hours for up 120 hours, at 10× magnification, to determine relative spheroid size and cell death. Experiments were performed in quadruplicate and analyzed using live-cell imaging and analysis software (e.g., IncuCyte ZOOM® 2018A software; Essenbio).
# CHOP (DDIT3) reporter = experiment: GCN2-induction of CHOP and apoptosis in 3T3 fibroblasts with CHOP (DDIT3) reporter construct; format: cell-based, murine
# Experimental: The CHOP construct comprised the […] (UTR) of mouse DDIT3 mRNA fused to a sequence encoding the fluorescent protein mCherry.
# Cells were seeded at 5,000 cells per well in flat bottom 96-well plates in 100 μL DMEM low glucose media without phenol red, and supplemented with 10% FBS and 2 mM glutamine. After 24 hours, the exemplary compounds, and either tunicamycin, halofuginone, or histidinol, were added together with 100 nM of fluorescent apoptosis stain (YO-PRO™-1 Iodide; Thermo Fisher) to detect apoptotic cells. Cells were placed in a live-cell imaging and analysis platform (IncuCyte ZOOM®; Essenbio) set up in a humidified incubator at 37° C. and the plates were scanned every 4 hours for up 120 hours, at 10× magnification, to determine cell confluence and cell death. Experiments were performed in duplicate with 3 images collected per well, and analyzed using live-cell imaging and analysis software (IncuCyte ZOOM® 2018A software; Essenbio).
# T1 sequence (Q9QZ05 whole entry): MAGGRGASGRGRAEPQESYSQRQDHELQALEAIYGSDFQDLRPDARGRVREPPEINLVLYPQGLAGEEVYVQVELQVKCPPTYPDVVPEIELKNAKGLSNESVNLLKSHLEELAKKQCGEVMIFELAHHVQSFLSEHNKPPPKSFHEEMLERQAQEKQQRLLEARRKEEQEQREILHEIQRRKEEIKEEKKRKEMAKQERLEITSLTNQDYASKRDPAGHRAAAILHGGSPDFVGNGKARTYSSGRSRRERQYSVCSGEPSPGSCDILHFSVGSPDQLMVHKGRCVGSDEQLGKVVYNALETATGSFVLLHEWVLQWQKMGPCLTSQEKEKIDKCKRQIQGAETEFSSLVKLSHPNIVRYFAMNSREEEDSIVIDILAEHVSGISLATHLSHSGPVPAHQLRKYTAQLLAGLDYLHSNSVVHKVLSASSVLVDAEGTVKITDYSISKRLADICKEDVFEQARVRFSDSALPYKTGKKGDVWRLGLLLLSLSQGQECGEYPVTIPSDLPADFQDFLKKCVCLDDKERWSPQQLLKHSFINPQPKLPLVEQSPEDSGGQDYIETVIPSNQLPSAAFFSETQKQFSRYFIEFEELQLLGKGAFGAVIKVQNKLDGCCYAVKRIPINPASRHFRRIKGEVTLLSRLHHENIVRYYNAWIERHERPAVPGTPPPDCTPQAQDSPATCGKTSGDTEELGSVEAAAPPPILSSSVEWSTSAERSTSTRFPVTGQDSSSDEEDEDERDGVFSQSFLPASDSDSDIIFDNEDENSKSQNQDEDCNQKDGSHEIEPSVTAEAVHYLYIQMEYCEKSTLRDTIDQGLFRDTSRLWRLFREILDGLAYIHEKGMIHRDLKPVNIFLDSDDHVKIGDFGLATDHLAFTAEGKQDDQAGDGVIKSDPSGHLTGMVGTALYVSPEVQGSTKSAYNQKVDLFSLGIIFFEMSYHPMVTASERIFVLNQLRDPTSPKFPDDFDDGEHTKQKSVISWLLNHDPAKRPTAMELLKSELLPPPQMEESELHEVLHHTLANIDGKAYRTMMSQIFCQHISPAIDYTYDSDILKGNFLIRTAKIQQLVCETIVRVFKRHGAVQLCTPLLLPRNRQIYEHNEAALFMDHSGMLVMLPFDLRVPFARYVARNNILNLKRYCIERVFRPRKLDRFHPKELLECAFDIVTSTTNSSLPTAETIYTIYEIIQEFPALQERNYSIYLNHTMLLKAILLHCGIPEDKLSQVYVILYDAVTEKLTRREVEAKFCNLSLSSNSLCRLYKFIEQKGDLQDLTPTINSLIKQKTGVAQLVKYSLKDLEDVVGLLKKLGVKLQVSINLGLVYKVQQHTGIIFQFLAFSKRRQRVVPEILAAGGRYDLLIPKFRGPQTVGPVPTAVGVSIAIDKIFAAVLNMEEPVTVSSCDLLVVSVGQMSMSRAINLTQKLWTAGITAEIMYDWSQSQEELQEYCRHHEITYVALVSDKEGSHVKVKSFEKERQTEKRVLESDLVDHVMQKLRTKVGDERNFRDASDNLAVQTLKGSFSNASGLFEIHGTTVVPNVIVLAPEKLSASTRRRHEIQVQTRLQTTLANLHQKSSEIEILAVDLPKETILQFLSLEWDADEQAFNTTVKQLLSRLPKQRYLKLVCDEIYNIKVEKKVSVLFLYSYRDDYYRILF
smiles,measurement,setting,value
Nc1ncc2cc(-c3c(F)ccc(NS(=O)(=O)c4cc(Cl)cc(CO)c4Cl)c3F)ccc2n1 [Compound 108],IC50,GCN2,< 0.01 µM
same,spheroid size and viability,HT29 cells,relative reduction in spheroid size and viability in a dose-dependent manner
same,GCN2 activation / GCN2-induced CHOP activation,"CHOP (DDIT3) reporter; murine 3T3 CHOP (mCherry) reporter fibroblasts, increasing concentrations, in the presence of halofuginone or histidinol",reduced GCN2 activation
same,apoptosis induced by halofuginone,"CHOP (DDIT3) reporter; murine 3T3 WT cells, co-treatment with halofuginone",effectively inhibited apoptosis
same,late-stage apoptosis induced by histidinol,"CHOP (DDIT3) reporter; murine 3T3 WT cells, co-treatment with histidinol",increased late-stage apoptosis
